Laboratory results from US11542259B2, “Compounds for the treatment of kinase-dependent disorders” (Exelixis, Inc., priority 2018, dated 2023).

Assays:
Type in all cases: cell-based
[1] = molecular target: Met (Homo sapiens (Human), UniProt P08581); assay: Met autophosphorylation ELISA in PC-3 cells; conditions: cellular, HGF stimulated, read-out: c-Met IC50
Experimental: PC-3 prostate cancer cells (ATCC #CRL-1435) were seeded at 4×10^4 cells/well onto 24-well plates (Greiner #662165), in DMEM (Thermo Fisher #11995-040) containing 10% FBS (Thermo Fisher #26140-079), 1% MEM NEAA (Thermo Fisher #11140-050), 1% GlutaMax (Thermo Fisher #35050-061), and 1% Penicillin Streptomycin (Thermo Fisher #15140-122). PC-3 cells were incubated at 37° C., 5% CO2 for 24 h and then starved for 3 h in serum-free medium. Test compounds were serially diluted to produce an 8-point dose curve in fresh serum-free medium to a final concentration of 0.3% DMSO (vehicle) and added to the cells and incubated for 1 h. Cells were then stimulated with 100 ng/mL recombinant human HGF (R&D Systems #294-HG-250) for 10 min, washed with cold PBS and immediately lysed with 130 μL of cold 1× lysis buffer [20 mM Tris, 137 mM sodium chloride, 2 mM EDTA, 10% glycerol, 1% NP-40 alternative, 1 mM activated sodium orthovanadate, 1 mM PefaBloc SC (Sigma-Aldrich #11429868001), protease/phosphatase inhibitor tablet (Thermo Fisher #A32959)]. Lysates were clarified by centrifugation and 100 μL/well added into the PathScan phospho-Met (panTyr) Sandwich ELISA (Cell Signaling Technology #7333). Assay was performed according to manufacturer's instructions. Positive control wells (100% activity) contained HGF-stimulated, DMSO-treated cell lysates. Negative control wells (0% activity) contained HGF-stimulated, reference inhibitor-treated cell lysates. IC50 values were calculated by nonlinear regression analysis using a 4-parameter logistic curve fit in ActivityBase XE (IDBS).

[2] = molecular target: AXL (Homo sapiens (Human), UniProt P30530); assay: AXL autophosphorylation ELISA in A-172 cells; conditions: cellular, Gas6 stimulated
AXL, sequence (P30530 26-894): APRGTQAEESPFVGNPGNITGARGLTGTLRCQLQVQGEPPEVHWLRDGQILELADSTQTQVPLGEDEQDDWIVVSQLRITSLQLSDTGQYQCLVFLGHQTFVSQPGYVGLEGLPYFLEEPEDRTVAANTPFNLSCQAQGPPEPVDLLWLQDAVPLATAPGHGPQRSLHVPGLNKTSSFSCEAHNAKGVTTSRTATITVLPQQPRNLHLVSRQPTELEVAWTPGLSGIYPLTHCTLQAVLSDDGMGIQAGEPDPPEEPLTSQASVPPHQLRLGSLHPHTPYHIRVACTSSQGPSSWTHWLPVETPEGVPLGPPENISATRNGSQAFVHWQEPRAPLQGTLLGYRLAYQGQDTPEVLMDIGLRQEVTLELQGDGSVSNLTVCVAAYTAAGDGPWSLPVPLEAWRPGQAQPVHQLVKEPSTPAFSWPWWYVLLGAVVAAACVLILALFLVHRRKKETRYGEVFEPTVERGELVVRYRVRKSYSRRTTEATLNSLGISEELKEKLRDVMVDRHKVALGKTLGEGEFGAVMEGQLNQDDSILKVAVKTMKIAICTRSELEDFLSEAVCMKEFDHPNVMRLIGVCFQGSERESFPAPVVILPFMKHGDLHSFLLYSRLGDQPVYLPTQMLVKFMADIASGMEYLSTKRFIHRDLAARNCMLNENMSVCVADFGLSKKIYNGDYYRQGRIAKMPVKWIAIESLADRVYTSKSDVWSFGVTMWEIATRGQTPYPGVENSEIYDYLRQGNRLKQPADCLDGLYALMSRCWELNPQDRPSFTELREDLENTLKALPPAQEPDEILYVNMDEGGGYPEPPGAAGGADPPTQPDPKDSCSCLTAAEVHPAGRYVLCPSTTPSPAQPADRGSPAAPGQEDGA
Experimental: A-172 glioblastoma cells (ATCC #CRL-1620) were seeded at 2.5×10^5 cells/well onto 24-well plates (Greiner #662165), in DMEM (Thermo Fisher #11995-040) containing 10% FBS (Thermo Fisher #26140-079), 1% MEM NEAA (Thermo Fisher #11140-050), 1% GlutaMax (Thermo Fisher #35050-061) and 1% Penicillin Streptomycin (Thermo Fisher #15140-122). A-172 cells were incubated at 37° C., 5% CO2 for 24 h and then starved for 24 h in serum-free medium. Test compounds were serially diluted to produce an 8-point dose curve in fresh serum-free medium to a final concentration of 0.3% DMSO (vehicle) and added to the cells and incubated for 1 h. Cells were then stimulated with 1 μg/mL recombinant human Gas6 (R&D Systems #885-GSB-500) for 15 min, washed with cold PBS and immediately lysed with 150 μL of cold 1× lysis buffer [20 mM Tris, 137 mM sodium chloride, 2 mM EDTA, 10% glycerol, 1% NP-40 alternative, 1 mM activated sodium orthovanadate, 1 mM PefaBloc SC (Sigma-Aldrich #11429868001), protease/phosphatase inhibitor tablet (Thermo Fisher #A32959)]. Lysates were collected and 100 μL/well added into the human phospho-AXL DuoSet IC ELISA (R&D Systems #DYC2228-2). Assay was performed according to manufacturer's instructions and sample phospho-AXL concentrations were extrapolated using human phospho-AXL control (R&D Systems #841645) as a standard. Positive control wells (100% activity) contained Gash-stimulated, DMSO-treated cell lysates. Negative control wells (0% activity) contained Gash-stimulated, reference inhibitor-treated cell lysates. IC50 values were calculated by nonlinear regression analysis using a 4-parameter logistic curve fit in ActivityBase XE (IDBS).

[3] = molecular target: KDR (Homo sapiens (Human), UniProt P35968); assay: KDR autophosphorylation ELISA in HUVEC cells; conditions: cellular, VEGF165 stimulated
KDR, sequence (P35968 20-1356): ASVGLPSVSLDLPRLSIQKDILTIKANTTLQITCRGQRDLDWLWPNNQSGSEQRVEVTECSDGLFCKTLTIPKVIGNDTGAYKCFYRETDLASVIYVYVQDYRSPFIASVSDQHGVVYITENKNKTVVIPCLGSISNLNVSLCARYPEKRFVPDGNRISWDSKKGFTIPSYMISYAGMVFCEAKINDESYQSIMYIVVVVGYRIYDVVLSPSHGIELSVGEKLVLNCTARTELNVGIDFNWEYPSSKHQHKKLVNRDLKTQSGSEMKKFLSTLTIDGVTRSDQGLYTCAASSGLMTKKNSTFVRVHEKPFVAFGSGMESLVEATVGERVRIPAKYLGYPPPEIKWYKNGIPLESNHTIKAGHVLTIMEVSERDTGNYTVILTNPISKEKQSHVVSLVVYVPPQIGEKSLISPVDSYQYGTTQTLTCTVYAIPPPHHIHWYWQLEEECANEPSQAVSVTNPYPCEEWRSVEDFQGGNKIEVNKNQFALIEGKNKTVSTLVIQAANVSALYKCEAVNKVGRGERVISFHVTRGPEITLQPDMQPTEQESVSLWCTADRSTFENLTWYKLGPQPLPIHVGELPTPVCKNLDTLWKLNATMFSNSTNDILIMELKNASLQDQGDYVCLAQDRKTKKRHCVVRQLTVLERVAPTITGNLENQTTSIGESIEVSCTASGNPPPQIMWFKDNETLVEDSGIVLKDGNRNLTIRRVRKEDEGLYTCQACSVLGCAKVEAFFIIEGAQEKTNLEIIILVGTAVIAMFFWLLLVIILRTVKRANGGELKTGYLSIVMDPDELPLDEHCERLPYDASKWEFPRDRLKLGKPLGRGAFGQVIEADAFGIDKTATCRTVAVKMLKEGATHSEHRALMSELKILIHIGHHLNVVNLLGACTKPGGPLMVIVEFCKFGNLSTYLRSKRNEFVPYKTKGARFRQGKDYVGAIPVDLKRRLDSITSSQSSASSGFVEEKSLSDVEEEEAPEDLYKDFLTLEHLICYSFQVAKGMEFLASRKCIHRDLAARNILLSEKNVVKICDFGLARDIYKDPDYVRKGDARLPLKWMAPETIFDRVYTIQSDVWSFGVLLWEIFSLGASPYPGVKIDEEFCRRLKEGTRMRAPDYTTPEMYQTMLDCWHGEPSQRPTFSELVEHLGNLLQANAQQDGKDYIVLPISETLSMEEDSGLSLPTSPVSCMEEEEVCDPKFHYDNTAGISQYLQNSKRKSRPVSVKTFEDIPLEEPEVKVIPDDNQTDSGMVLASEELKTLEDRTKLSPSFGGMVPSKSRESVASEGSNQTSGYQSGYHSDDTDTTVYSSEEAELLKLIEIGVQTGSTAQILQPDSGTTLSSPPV
Experimental: Human umbilical vein endothelial cells or HUVEC (Lonza #C2519A) were seeded at 2×10^4 cells/well onto 96-well plates (Corning #3904), in EGM-2 growth medium (Lonza #CC-3162) containing 1% Penicillin Streptomycin (Thermo Fisher #15140-122). HUVEC cells were incubated at 37° C., 5% CO2 for 24 h and then starved for 24 h in serum-free EBM-2 basal medium (Lonza #CC-3156) containing 1% Penicillin Streptomycin. Test compounds were serially diluted to produce an 8-point dose curve in fresh serum-free medium to a final concentration of 0.3% DMSO (vehicle) and added to the cells and incubated for 1 h. Cells were then stimulated with 100 ng/mL recombinant human VEGF165 (R&D Systems #293-VE-500) for 5 min, washed with cold PBS, and immediately lysed with 130 μL of cold 1× lysis buffer [20 mM Tris, 137 mM sodium chloride, 2 mM EDTA, 10% glycerol, 1% NP-40 alternative, 1 mM activated sodium orthovanadate, 1 mM PefaBloc SC (Sigma-Aldrich #11429868001), protease/phosphatase inhibitor tablet (Thermo Fisher #A32959)]. Lysates were collected and 100 μL/well added into the human phospho-KDR DuoSet IC ELISA (R&D Systems #DYC1766-2). Assay was performed according to manufacturer's instructions and sample phospho-KDR concentrations were extrapolated using human phospho-KDR control (R&D Systems #841421) as a standard. Positive control wells (100% activity) contained VEGF165-stimulated, DMSO-treated cell lysates. Negative control wells (0% activity) contained non-stimulated cell lysates. IC50 values were calculated by nonlinear regression analysis using a 4-parameter logistic curve fit in ActivityBase XE (IDBS).

Met, sequence (P08581 25-1390): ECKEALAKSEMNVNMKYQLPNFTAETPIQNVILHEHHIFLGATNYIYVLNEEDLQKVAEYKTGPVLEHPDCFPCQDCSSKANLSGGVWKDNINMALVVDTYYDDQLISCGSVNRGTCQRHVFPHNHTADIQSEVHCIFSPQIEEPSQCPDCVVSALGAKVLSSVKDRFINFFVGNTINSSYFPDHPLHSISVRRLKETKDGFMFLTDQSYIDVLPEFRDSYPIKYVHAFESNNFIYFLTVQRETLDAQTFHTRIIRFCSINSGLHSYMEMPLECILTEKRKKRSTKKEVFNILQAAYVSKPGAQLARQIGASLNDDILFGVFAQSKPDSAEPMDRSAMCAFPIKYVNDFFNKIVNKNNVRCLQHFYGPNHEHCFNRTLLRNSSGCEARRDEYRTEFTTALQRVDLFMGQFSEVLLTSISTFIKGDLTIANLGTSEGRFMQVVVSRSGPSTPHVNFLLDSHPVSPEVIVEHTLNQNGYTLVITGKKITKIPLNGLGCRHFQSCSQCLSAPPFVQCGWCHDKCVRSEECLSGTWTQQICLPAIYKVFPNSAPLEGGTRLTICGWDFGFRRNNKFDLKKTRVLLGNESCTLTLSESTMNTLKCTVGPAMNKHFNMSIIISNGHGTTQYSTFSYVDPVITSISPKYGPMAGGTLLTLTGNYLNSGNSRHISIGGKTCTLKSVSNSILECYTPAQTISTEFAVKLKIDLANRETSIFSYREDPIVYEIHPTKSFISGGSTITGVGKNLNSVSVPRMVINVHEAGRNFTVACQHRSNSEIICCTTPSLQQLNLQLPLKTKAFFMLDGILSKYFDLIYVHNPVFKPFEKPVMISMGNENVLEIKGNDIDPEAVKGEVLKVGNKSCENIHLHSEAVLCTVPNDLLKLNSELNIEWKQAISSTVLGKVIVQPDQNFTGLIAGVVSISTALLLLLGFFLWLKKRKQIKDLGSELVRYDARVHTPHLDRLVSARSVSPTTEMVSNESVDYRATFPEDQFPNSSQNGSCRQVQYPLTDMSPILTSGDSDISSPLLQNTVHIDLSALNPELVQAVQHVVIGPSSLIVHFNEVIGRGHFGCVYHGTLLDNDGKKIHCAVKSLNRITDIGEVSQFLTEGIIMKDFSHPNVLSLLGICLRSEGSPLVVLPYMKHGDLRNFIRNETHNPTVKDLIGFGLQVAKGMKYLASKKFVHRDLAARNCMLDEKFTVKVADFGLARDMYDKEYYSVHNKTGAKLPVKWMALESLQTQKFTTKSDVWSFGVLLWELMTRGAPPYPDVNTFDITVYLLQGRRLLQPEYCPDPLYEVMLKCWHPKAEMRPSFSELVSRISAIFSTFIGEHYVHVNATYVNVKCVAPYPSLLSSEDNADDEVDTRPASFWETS

In the case of `CO/N=C(\C)c1cc2c(Oc3ccc(NC(=O)C4(C(=O)Nc5ccc(F)cc5)CC4)cc3)ccnc2cc1OC` [Compound 35, 1-N′-(4-fluorophenyl)-1-N-[4-[7-methoxy-6-[(E)-N-methoxy-C-methylcarbonimidoyl]quinolin-4-yl]oxyphenyl]cyclopropane-1,1-dicarboxamide], the IC50 [1] is reported as 100 to 300 nM, the IC50 [2] is reported as 100 to 300 nM and the IC50 [3] is reported as 100 to 300 nM.

For `CO/N=C(/C)c1cc2c(Oc3ccc(NC(=O)C4(C(=O)Nc5ccc(F)cc5)CC4)cc3)ccnc2cc1OC` [Compound 36, 1-N′-(4-fluorophenyl)-1-N-[4-[7-methoxy-6-[(Z)-N-methoxy-C-methylcarbonimidoyl]quinolin-4-yl]oxyphenyl]cyclopropane-1,1-dicarboxamide], the IC50 [1] was 100 to 300 nM, the IC50 [2] was 100 to 300 nM and the IC50 [3] was over 300 nM.

`COCCNc1cc2nccc(Oc3ccc(NC(=O)C4(C(=O)Nc5ccc(F)cc5)CC4)cc3)c2cc1C(N)=O` [Compound 70, 1-N-[4-[6-Carbamoyl-7-(2-methoxyethylamino)quinolin-4-yl]oxyphenyl]-1-N′-(4-fluorophenyl)cyclopropane-1,1-dicarboxamide] was tested, and the IC50 [1] was 10 to 100 nM, the IC50 [2] was 10 to 100 nM and the IC50 [3] was 10 to 100 nM.

With `CNc1cc2nccc(Oc3ccc(NC(=O)C4(C(=O)Nc5ccc(F)cc5)CC4)cc3)c2cc1C(=O)O` [Compound 81, 4-[4-[[1-[(4-Fluorophenyl)carbamoyl]cyclopropane-carbonyl]amino]phenoxy]-7-(methylamino)quinoline-6-carboxylic Acid] the IC50 [1] was over 300 nM, the IC50 [2] was over 300 nM and the IC50 [3] was over 300 nM.

`CNc1cc2nccc(Oc3ccc(NC(=O)C4(C(=O)Nc5ccc(F)cc5)CC4)cc3)c2cc1C(N)=O` [Compound 82, 1-N-[4-[6-Carbamoyl-7-(methylamino)quinolin-4-yl]oxyphenyl]-1-N′-(4-fluorophenyl)cyclopropane-1,1-dicarboxamide] showed an IC50 [1] of 10 to 100 nM, an IC50 [2] of 10 to 100 nM and an IC50 [3] of 10 to 100 nM.

`CNC(=O)c1cc2c(Oc3ccc(NC(=O)C4(C(=O)Nc5ccc(F)cc5)CC4)cc3)ccnc2cc1NC` [Compound 83, 1-N′-(4-Fluorophenyl)-1-N-[4-[7-(methylamino)-6-(methylcarbamoyl)quinolin-4-yl]oxyphenyl]cyclopropane-1,1-dicarboxamide] was tested, and the IC50 [1] was 10 to 100 nM, the IC50 [2] was 10 to 100 nM and the IC50 [3] was 10 to 100 nM.

For `CNc1cc2nccc(Oc3ccc(NC(=O)C4(C(=O)Nc5ccc(F)cc5)CC4)cc3)c2cc1C(=O)OC` [Compound 84, Methyl 4-[4-[[1-[(4-fluorophenyl)carbamoyl]cyclopropane-carbonyl]amino]phenoxy]-7-(methylamino)quinoline-6-carboxylate], the IC50 [1] was 10 to 100 nM, the IC50 [2] was at most 10 nM and the IC50 [3] was at most 10 nM.

Compound `NC(=O)c1cc2c(Oc3ccc(NC(=O)C4(C(=O)Nc5ccc(F)cc5)CC4)cc3)ccnc2cc1N` [Compound 87, 1-N-[4-(7-Amino-6-carbamoylquinolin-4-yl)oxyphenyl]-1-N′-(4-fluorophenyl)cyclopropane-1,1-dicarboxamide] has an IC50 [1] of 100 to 300 nM, an IC50 [2] of 100 to 300 nM and an IC50 [3] of over 300 nM.

With `CNC(=O)c1cc2c(Oc3ccc(NC(=O)C4(C(=O)Nc5ccc(F)cc5)CC4)cc3)ccnc2cc1N` [Compound 88, 1-N-[4-[7-Amino-6-(methylcarbamoyl)quinolin-4-yl]oxyphenyl]-1-N′-(4-fluorophenyl)cyclopropane-1,1-dicarboxamide] the IC50 [1] was 100 to 300 nM, the IC50 [2] was 100 to 300 nM and the IC50 [3] was over 300 nM.

For `Nc1cc2nccc(Oc3ccc(NC(=O)C4(C(=O)Nc5ccc(F)cc5)CC4)cc3)c2cc1C(=O)O` [Compound 89, 7-Amino-4-[4-[[1-[(4-fluorophenyl)carbamoyl]cyclopropane-carbonyl]amino]phenoxy]quinoline-6-carboxylic Acid], the IC50 [1] was over 300 nM, the IC50 [2] was over 300 nM and the IC50 [3] was over 300 nM.

Compound `COC(=O)c1cc2c(Oc3ccc(NC(=O)C4(C(=O)Nc5ccc(F)cc5)CC4)cc3)ccnc2cc1N` [Compound 90, Methyl 7-amino-4-[4-[[1-[(4-fluorophenyl)carbamoyl]-cyclopropanecarbonyl]amino]phenoxy]quinoline-6-carboxylate] has an IC50 [1] of 10 to 100 nM, an IC50 [2] of 10 to 100 nM and an IC50 [3] of 10 to 100 nM.

`CC1NC(=O)c2cc3c(Oc4ccc(NC(=O)C5(C(=O)Nc6ccc(F)cc6)CC5)cc4)ccnc3cc2O1` (stereo not drawn) [Compound 92, 1-N′-(4-Fluorophenyl)-1-N-[4-[(2-methyl-4-oxo-2,3-dihydropyrido[3,2-g][1,3]benzoxazin-6-yl)oxy]phenyl]cyclopropane-1,1-dicarboxamide] gave an IC50 [1] of 100 to 300 nM, an IC50 [2] of 10 to 100 nM and an IC50 [3] of 100 to 300 nM.

`NC(=O)c1cc2c(Oc3ccc(NC(=O)C4(C(=O)Nc5ccc(F)cc5)CC4)cc3)ccnc2cc1OCCO` [Compound 106, 1-N-[4-[6-Carbamoyl-7-(2-hydroxyethoxy)quinolin-4-yl]oxyphenyl]-1-N′-(4-fluorophenyl)cyclopropane-1,1-dicarboxamide] was tested, and the IC50 [1] was 10 to 100 nM, the IC50 [2] was at most 10 nM and the IC50 [3] was at most 10 nM.

With `O=C(NOCCO)c1ccc2c(Oc3ccc(NC(=O)C4(C(=O)Nc5ccc(F)cc5)CC4)cc3)ccnc2c1` [Compound 166, 1-N′-(4-Fluorophenyl)-1-N-[4-[7-(2-hydroxyethoxycarbamoyl)-quinolin-4-yl]oxyphenyl]cyclopropane-1,1-dicarboxamide] the IC50 [1] was 10 to 100 nM, the IC50 [2] was 10 to 100 nM and the IC50 [3] was 100 to 300 nM.

Compound `O=C(NOC1COC1)c1ccc2c(Oc3ccc(NC(=O)C4(C(=O)Nc5ccc(F)cc5)CC4)cc3)ccnc2c1` [Compound 167, 1-N′-(4-Fluorophenyl)-1-N-[4-[7-(oxetan-3-yloxycarbamoyl)quinolin-4-yl]oxyphenyl]cyclopropane-1,1-dicarboxamide] has an IC50 [1] of 100 to 300 nM, an IC50 [2] of 100 to 300 nM and an IC50 [3] of 100 to 300 nM.

For `O=C(NOC[C@@H](O)CO)c1ccc2c(Oc3ccc(NC(=O)C4(C(=O)Nc5ccc(F)cc5)CC4)cc3)ccnc2c1` [Compound 170, 1-N-[4-[7-[[(2S)-2,3-Dihydroxypropoxy]carbamoyl]quinolin-4-yl]oxyphenyl]-1-N′-(4-fluorophenyl)cyclopropane-1,1-dicarboxamide], the IC50 [1] was over 300 nM, the IC50 [2] was 100 to 300 nM and the IC50 [3] was 100 to 300 nM.

`COc1cc2nccc(Oc3ccc(NC(=O)C4(C(=O)Nc5ccc(F)cc5)CC4)cc3)c2cc1-c1cn(C)cn1` [Compound 177, 1-N′-(4-Fluorophenyl)-1-N-[4-[7-methoxy-6-(1-methylimidazol-4-yl)quinolin-4-yl]oxyphenyl]cyclopropane-1,1-dicarboxamide] showed an IC50 [1] of 10 to 100 nM, an IC50 [2] of at most 10 nM and an IC50 [3] of at most 10 nM.
